According to US20240148821A1, “PHARMACEUTICAL USE OF CYCLIC PEPTIDE COMPOUND” (CHUGAI SEIYAKU KABUSHIKI KAISHA, priority 2021, published 2024):
Numbered stars: 1 amine (or outer) side, 2 acyl side, 3 side chain; on linkers, the order of the positions; unused ones are H or OH. Bridge positions count the residues as written; N and C are the ends. Square brackets hold non-standard residues; d marks the D form. Peptide text beside a SMILES is read from it. * marks the point of attachment. hPhe(3,5-F2-4-CF3) = N[C@@H](CCc1cc(F)c(C(F)(F)F)c(F)c1)C(=O)O; hPhe(3-Cl-4-CF3) = N[C@@H](CCc1ccc(C(F)(F)F)c(Cl)c1)C(=O)O; X126 = O=C([C@H](Cc1cc(F)cc(I)c1)N[*:1])[*:2]; X20 = Cc1cncc(C[C@@H](C(=O)[*:2])N(C)[*:1])c1; NMePhe(4-Cl) = CN[C@@H](Cc1ccc(Cl)cc1)C(=O)O; NMePhe(4-Me) = CN[C@@H](Cc1ccc(C)cc1)C(=O)O; NMePhe(3-F) = CN[C@@H](Cc1cccc(F)c1)C(=O)O; NMedβ3hAla = C[C@H](CC(=O)[*:2])N(C)[*:1]; NMeGly(cPent) = CN[C@H](C(=O)O)C1CCCC1; Phe(3-I) = N[C@@H](Cc1cccc(I)c1)C(=O)O; Pro(4,4-F2) = O=C(O)[C@@H]1CC(F)(F)CN1; NMehPhe = CN[C@@H](CCc1ccccc1)C(=O)O; NMeY = CN[C@@H](Cc1ccc(O)cc1)C(=O)O; NMeCha = CN[C@@H](CC1CCCCC1)C(=O)O; NMeGly(cPr) = CN[C@H](C(=O)O)C1CC1; NMeAllylGly = C=CC[C@H](NC)C(=O)O; NMeChg = CN[C@H](C(=O)O)C1CCCCC1; NMeI = CC[C@H](C)[C@H](NC)C(=O)O; N(CH2CH2)2CF2 = FC1(F)CCN(*)CC1; NMeD = CN[C@@H](CC(=O)O)C(=O)O; NMeL = CN[C@@H](CC(C)C)C(=O)O; NMeNva = CCC[C@H](NC)C(=O)O; NMeV = CN[C@H](C(=O)O)C(C)C; d(β3hA) = C[C@@H](N)CC(=O)O; NMeAbu = CC[C@H](NC)C(=O)O; NMeS = CN[C@@H](CO)C(=O)O; NMeA = CN[C@@H](C)C(=O)O; NMeAib = CNC(C)(C)C(=O)O; Nle = CCCC[C@H](N)C(=O)O; Piperidide = C1CCN(*)CC1; Pyrrolidide = C1CCN(*)C1; Ac5c = NC1(C(=O)O)CCCC1; Aze = O=C(O)[C@@H]1CCN1; Ac4c = NC1(C(=O)O)CCC1; CH2CMe2OH = CC(C)(O)C*; Aib = CC(C)(N)C(=O)O; Cyclopropyl = C1CC1*; Isopentyl = CC(C)CC*; Sar = CNCC(=O)O

What follows are compounds tested on Human pancreatic cancer cell line AsPC-1 (G12D mutation Kras) (assay: AsPC-1 cell growth inhibition (AsPC-1 CGI)). Details: read-out: AsPC-1 cell growth inhibition, 50% growth inhibitory concentration (IC50 value); 96 hours, CellTiter-Glo, values classified in ranges.
Format: cell-based
Description: Test compounds were serially dilated with dimethyl sulfoxide, and 200 nL was then dispensed to a U-bottom 96-well plate using Labcyte Echo. […] The cell suspension was dispensed to a. plate containing a test compound at 100 μL per well and incubated at 37° C. in a 5% carbon dioxide gas incubator. 96 hours later, 80 μL of CellTiter-Glo (Promega) was added to each well and fluorescence was measured.

| SMILES | IC50 |
| --- | --- |
| CC[C@H](C)[C@@H]1NC(=O)[C@H](CC(C)C)N(C)C(=O)C[C@@H](C)N(C)C(=O)[C@H](C2CC2)N(C)C(=O)C2(CCCC2)NC(=O)[C@@H]2CCCN2C(=O)[C@H](CCc2ccc(C(F)(F)F)c(Cl)c2)NC(=O)CN(C)C(=O)[C@H](CC2CCCCC2)N(C)C(=O)CN(C)C(=O)CN(C)C1=O [Compound 874] (cyclo([Ac5c][NMeGly(cPr)][NMedβ3hAla][NMeL]I[Sar][Sar][NMeCha][Sar][hPhe(3-Cl-4-CF3)]P)) | > 500 nM |
| CC[C@H](C)[C@@H]1NC(=O)[C@H](CC(C)C)N(C)C(=O)C[C@@H](C(=O)N2CCCCC2)N(C)C(=O)[C@H](COC2CC2)N(C)C(=O)C2(CCCC2)NC(=O)[C@@H]2CCCN2C(=O)[C@H](CCc2ccc(C(F)(F)F)c(Cl)c2)NC(=O)CN(C)C(=O)[C@H](CC2CCCCC2)N(C)C(=O)CN(C)C(=O)CN(C)C1=O [Compound 1857] ([NMeL]I[Sar][Sar][NMeCha][Sar][hPhe(3-Cl-4-CF3)]P[Ac5c][NMeS](Cyclopropyl)[NMeD]-Piperidide; lactam N-11) | > 500 nM |
| CCC[C@H]1C(=O)N(C)CC(=O)N[C@@H](CCc2ccc(C(F)(F)F)c(Cl)c2)C(=O)N2CCC[C@H]2C(=O)NC2(CCCC2)C(=O)N(C)[C@@H](C2CCCCC2)C(=O)N(C)[C@H](C(=O)N2CCCCC2)CC(=O)N(C)[C@@H](CC(C)C)C(=O)N[C@@H]([C@@H](C)CC)C(=O)N(C)CC(=O)N(C)CC(=O)N1C [Compound 187] ([NMeL]I[Sar][Sar][NMeNva][Sar][hPhe(3-Cl-4-CF3)]P[Ac5c][NMeChg][NMeD]-Piperidide; lactam N-11) | > 500 nM |
| CC[C@H](C)[C@@H]1NC(=O)[C@H](CC(C)C)N(C)C(=O)C[C@@H](C)NC(=O)[C@H](C(C)C)N(C)C(=O)C2(CCCC2)NC(=O)[C@@H]2CCCN2C(=O)[C@H](CCc2ccc(C(F)(F)F)c(Cl)c2)NC(=O)CN(C)C(=O)[C@H](COc2ccccc2Cl)N(C)C(=O)CN(C)C(=O)CN(C)C1=O [Compound 1582] | > 500 nM |
| CC[C@H](C)[C@@H]1NC(=O)[C@H](CC(C)C)N(C)C(=O)C[C@@H](C)NC(=O)[C@H](CC(C)C)N(C)C(=O)C(C)(C)NC(=O)[C@H](COCC(C)(C)O)N(C)C(=O)[C@H](CCc2ccc(C(F)(F)F)c(Cl)c2)NC(=O)CN(C)C(=O)[C@H](COCCC(C)C)N(C)C(=O)CN(C)C(=O)CN(C)C1=O [Compound 1546] (cyclo([Aib][NMeL][d(β3hA)][NMeL]I[Sar][Sar][NMeS](Isopentyl)[Sar][hPhe(3-Cl-4-CF3)][NMeS](CH2CMe2OH))) | > 500 nM |
| CC[C@H](C)[C@@H]1NC(=O)[C@H](CC(C)C)N(C)C(=O)C[C@@H](C(=O)N2CCCCC2)N(C)C(=O)[C@H](C(C)C)N(C)C(=O)[C@H](C)NC(=O)[C@H](CC(=O)N2CCC(F)(F)CC2)N(C)C(=O)[C@H](CCc2ccc(C(F)(F)F)c(Cl)c2)NC(=O)CN(C)C(=O)[C@H](CC2CCCCC2)N(C)C(=O)CN(C)C(=O)CN(C)C1=O [Compound 444] ([NMeL]I[Sar][Sar][NMeCha][Sar][hPhe(3-Cl-4-CF3)][NMeD](N(CH2CH2)2CF2)A[NMeV][NMeD]-Piperidide; lactam N-11) | > 500 nM |
| CC[C@H](C)[C@@H]1NC(=O)[C@H](CC(C)C)N(C)C(=O)C[C@@H](C(=O)N(C)C)N(C)C(=O)[C@H]([C@@H](C)CC)N(C)C(=O)[C@H](C(C)C)NC(=O)[C@@H](C)NC(=O)[C@H](CCc2ccc(C(F)(F)F)c(Cl)c2)NC(=O)CN(C)C(=O)[C@H](Cc2ccc(C)cc2)N(C)C(=O)[C@@H]2CCN2C(=O)[C@H](C)N(C)C1=O [Compound 915] ([NMeL]I[NMeA][Aze][NMePhe(4-Me)][Sar][hPhe(3-Cl-4-CF3)][dA]V[NMeI][NMeD]-NMe2; lactam N-11) | > 500 nM |
| CC[C@H](C)[C@@H]1NC(=O)[C@H](CC(C)C)N(C)C(=O)C[C@@H](C(=O)N(C)C)N(C)C(=O)[C@H]([C@@H](C)CC)N(C)C(=O)[C@H](C)NC(=O)[C@@H](C)NC(=O)[C@H](CCc2ccc(C(F)(F)F)c(Cl)c2)NC(=O)CN(C)C(=O)[C@H](Cc2ccc(C)cc2)N(C)C(=O)[C@@H]2CCN2C(=O)[C@H](C)N(C)C1=O [Compound 382] ([NMeL]I[NMeA][Aze][NMePhe(4-Me)][Sar][hPhe(3-Cl-4-CF3)][dA]A[NMeI][NMeD]-NMe2; lactam N-11) | > 500 nM |
| CC[C@H](C)[C@@H]1NC(=O)[C@H](CC(C)C)N(C)C(=O)C[C@@H](C(=O)N2CCCCC2)N(C)C(=O)[C@H](C2CCCCC2)N(C)C(=O)C2(CCCC2)NC(=O)[C@H](Cc2cncc(C)c2)N(C)C(=O)[C@H](CCc2ccc(C(F)(F)F)c(Cl)c2)NC(=O)CN(C)C(=O)[C@H](CC2CCCCC2)N(C)C(=O)[C@@H]2CCN2C(=O)CN(C)C1=O [Compound 477] ([NMeL]I[Sar][Aze][NMeCha][Sar][hPhe(3-Cl-4-CF3)][X20][Ac5c][NMeChg][NMeD]-Piperidide; lactam N-11) | > 500 nM |
| CC[C@H](C)[C@@H]1NC(=O)[C@H](CC(C)C)N(C)C(=O)C[C@@H](C(=O)N2CCCCC2)N(C)C(=O)[C@H](C2CCCCC2)N(C)C(=O)C2(CCCC2)NC(=O)[C@@H]2CCCN2C(=O)[C@H](CCc2ccc(C(F)(F)F)c(Cl)c2)NC(=O)CN(C)C(=O)[C@H](CC2CCCCC2)N(C)C(=O)[C@H](C)N(C)C(=O)CN(C)C1=O [Compound 1186] ([NMeL]I[Sar][NMeA][NMeCha][Sar][hPhe(3-Cl-4-CF3)]P[Ac5c][NMeChg][NMeD]-Piperidide; lactam N-11) | > 500 nM |
| CCCC[C@@H]1NC(=O)[C@H](Cc2cc(F)cc(I)c2)NC(=O)CN(C)C(=O)[C@H](Cc2ccc(OC)cc2)N(C)C(=O)[C@@H]2CCN2C(=O)[C@H](C)N(C)C(=O)[C@H]([C@@H](C)CC)NC(=O)[C@H](CC)N(C)C(=O)C[C@@H](C(=O)N2CCCCC2)N(C)C(=O)[C@H](CC(C)C)NC(=O)C(C)(C)N(C)C1=O [Compound 1226] ([NMeAbu]I[NMeA][Aze][NMeY](Me)[Sar][X126][Nle][NMeAib]L[NMeD]-Piperidide; lactam N-11) | > 500 nM |
| CC[C@H](C)[C@@H]1NC(=O)[C@H](CC(C)C)N(C)C(=O)C[C@@H](C)NC(=O)[C@H](C(C)C)N(C)C(=O)C2(CCCC2)NC(=O)[C@@H]2CCCN2C(=O)[C@H](CCc2ccc(C(F)(F)F)c(Cl)c2)NC(=O)CN(C)C(=O)[C@H](CCc2ccccc2)N(C)C(=O)CN(C)C(=O)CN(C)C1=O [Compound 1627] (cyclo([Ac5c][NMeV][d(β3hA)][NMeL]I[Sar][Sar][NMehPhe][Sar][hPhe(3-Cl-4-CF3)]P)) | > 500 nM |
| C=CC[C@H]1C(=O)NC2(CCCC2)C(=O)N(C)[C@@H](C2CCCCC2)C(=O)N(C)[C@H](C(=O)N2CCCCC2)CC(=O)N(C)[C@@H](CC(C)C)C(=O)N[C@@H]([C@@H](C)CC)C(=O)N(C)CC(=O)N(C)CC(=O)N(C)[C@@H](CC2CCCCC2)C(=O)N(C)CC(=O)N[C@@H](CCc2ccc(C(F)(F)F)c(Cl)c2)C(=O)N1C [Compound 1449] ([NMeL]I[Sar][Sar][NMeCha][Sar][hPhe(3-Cl-4-CF3)][NMeAllylGly][Ac5c][NMeChg][NMeD]-Piperidide; lactam N-11 (inferred); C-terminus assumed) | > 500 nM |
| CC[C@H](C)[C@@H]1NC(=O)[C@H](CC(C)C)N(C)C(=O)C[C@@H](C(=O)N2CCCC2)N(C)C(=O)[C@H](C2CCCCC2)N(C)C(=O)C2(CCC2)NC(=O)[C@@H]2CC(F)(F)CN2C(=O)[C@H](CCc2cc(F)c(C(F)(F)F)c(F)c2)NC(=O)CN(C)C(=O)[C@H](CC2CCCCC2)N(C)C(=O)CN(C)C(=O)CN(C)C1=O [Compound 1192] ([NMeL]I[Sar][Sar][NMeCha][Sar][hPhe(3,5-F2-4-CF3)][Pro(4,4-F2)][Ac4c][NMeChg][NMeD]-Pyrrolidide; lactam N-11) | ≤ 20 nM |
| CC[C@H](C)[C@@H]1NC(=O)[C@H](CC(C)C)N(C)C(=O)C[C@@H](C(=O)N2CCCC2)N(C)C(=O)[C@H](C2CCCCC2)N(C)C(=O)C2(CCC2)NC(=O)[C@@H]2CC(F)(F)CN2C(=O)[C@H](CCc2ccc(C(F)(F)F)c(Cl)c2)NC(=O)CN(C)C(=O)[C@H](CC2CCCCC2)N(C)C(=O)CN(C)C(=O)CN(C)C1=O [Compound 1163] ([NMeL]I[Sar][Sar][NMeCha][Sar][hPhe(3-Cl-4-CF3)][Pro(4,4-F2)][Ac4c][NMeChg][NMeD]-Pyrrolidide; lactam N-11) | ≤ 20 nM |
| CC[C@H](C)[C@@H]1NC(=O)[C@H](C)N(C)C(=O)C[C@@H](C(=O)N2CCCCC2)N(C)C(=O)[C@H](C(C)C)N(C)C(=O)C2(CCCC2)NC(=O)[C@@H]2CCCN2C(=O)[C@H](CCc2ccc(C(F)(F)F)c(Cl)c2)NC(=O)[C@H]2CCCN2C(=O)[C@H](CC2CCCCC2)N(C)C(=O)[C@@H]2CCN2C(=O)CN(C)C1=O [Compound 447] ([NMeA]I[Sar][Aze][NMeCha][dP][hPhe(3-Cl-4-CF3)]P[Ac5c][NMeV][NMeD]-Piperidide; lactam N-11) | > 500 nM |
| CC[C@H](C)[C@@H]1NC(=O)[C@H](CC(C)C)N(C)C(=O)C[C@@H](C(=O)N2CCCC2)N(C)C(=O)[C@H](C2CCCC2)N(C)C(=O)C2(CCCC2)NC(=O)[C@@H]2CCCN2C(=O)[C@H](CCc2ccc(C(F)(F)F)c(Cl)c2)NC(=O)CN(C)C(=O)[C@H](CC2CCCCC2)N(C)C(=O)CN(C)C(=O)CN(C)C1=O [Compound 1818] ([NMeL]I[Sar][Sar][NMeCha][Sar][hPhe(3-Cl-4-CF3)]P[Ac5c][NMeGly(cPent)][NMeD]-Pyrrolidide; lactam N-11) | ≤ 20 nM |
| CCCC[C@@H]1NC(=O)[C@H](Cc2cccc(I)c2)NC(=O)CN(C)C(=O)[C@H](Cc2ccc(Cl)cc2)N(C)C(=O)CN(C)C(=O)CN(C)C(=O)[C@H]([C@@H](C)CC)NC(=O)[C@H](CC(C)C)N(C)C(=O)C[C@@H](C(=O)N2CCCCC2)N(C)C(=O)[C@H](CC(C)C)NC(=O)[C@H](Cc2cccc(F)c2)N(C)C1=O [Compound 483] ([NMeL]I[Sar][Sar][NMePhe(4-Cl)][Sar][Phe(3-I)][Nle][NMePhe(3-F)]L[NMeD]-Piperidide; lactam N-11) | > 500 nM |
